Experiments:
[1] = In-vitro agent retention in perfused excised vessel, fluorescent intensity of tissue sections; assay type: in vitro ADME, porcine
Excerpt: The target tissue is a live excised porcine carotid. The tissue sample is perfused with buffered saline of Kerbs-henseleit Buffer (Sigma Catalog #K3753) at physiological temperature and pressure. Thereafter, the excised vessels are received in buffered saline solution. The artery segments are sutured to tubing using plastic nipple adapters and loaded into a perfusion chamber. The segments are stretched to their original lengths. In the perfusion chamber, the vessels are allowed to equilibrate for 10 minutes at 37° C. the hydrostatic pressure head above the chamber is about 100 cm.
A microporous balloon catheter is inserted through the rotating hemostatic valve (RHV) and secured. The agent used is […]. The agent is delivered through the catheter at 3.5 atm pressure for 2 minutes in both control and test samples. The amount of agent delivered is about 3 ml. Immediately following agent introduction, a barrier of Poly(amine) Barrier is delivered through the catheter in only the test samples for about 2 minutes. The total amount of barrier introduced is about 3 ml.
The test and control vessels are flushed with the buffer solution for about 15 minutes. The proximal and distal positions of the vessels are marked and the vessels are removed from the perfusion chamber and placed into a bath containing liquid nitrogen. The vessels are mounted in paraffin and sliced in 10 micron thin sections at the proximal, mid and distal portions.
The slides are observed using a fluorescent microscope. The fluorescent intensities of the sections are recorded, where fluorescence represents the presence of agent in the tissue. The resulting intensities over the length of the tissue sections are represented in the graphs in FIG. 5A showing the proximal section and FIG. 5B showing the mid section. […] The average intensity of agent in the test sample is about 1083, whereas the control intensity is about 749. Thus, a 44% increase in agent occurs with the use of the barrier. […]

[2] = cited from earlier work; for pKa NH3: aminium group NH3+; for pKa CO2H: carboxyl group

| fluorescent intensity of agent in tissue section, Distal [1] | fluorescent intensity of agent in tissue section, Mid [1] | fluorescent intensity of agent in tissue section, Proximal [1] | Compound | pKa NH3 [2] | pKa CO2H [2] |
| --- | --- | --- | --- | --- | --- |
| 747 | 831 | 669 | cascade blue | – | – |
| – | – | – | N[C@@H](CSSC[C@H](N)C(=O)O)C(=O)O [Cystine] | 7.9 | 1.6 |
| – | – | – | O=C(O)[C@@H]1C[C@@H](O)CN1 [Hydroxyproline] | 9.7 | 1.9 |
| – | – | – | CSCC[C@H](N)C(=O)O [Methionine] | 9.9 | – |

Reference: US7799346B2, “Method of treatment directed to agent retention in biological tissues” (Advanced Cardiovascular Systems, Inc., priority 1999, dated 2010)
